One experiment has as its system S. aureus (ATCC 29213). The experiment in a line: microbe, parasite or virus in culture. In kind it is cell-based, Staphylococcus aureus. The settings on record: read-out: Minimum Inhibitory Concentration. An excerpt: (§1) As we were primarily interested in the clinical potential of cathelicidin-PY (1) and its analogues 2–9, cation-adjusted Mueller-Hinton broth (CAMHB) was implemented during our in vitro antimicrobial screening towards bacteria. However, non-cation adjusted Mueller Hinton broth (MHB) was also implemented to evaluate the cation sensitivity of these AMPs. In each medium, compounds 1–9 were subjected to minimum inhibitory concentration (MIC) assays with E. coli (ATCC 25922), P. aeruginosa (SVB-B9), and S. aureus (ATCC 29213), in accordance with CLSI microbroth dilution protocols (Table 1). It is noteworthy, however, that the initial report of cathelicidin-PY’s isolation documented MIC assays performed in Luria Broth (LB). Furthermore, antifungal activity towards C. albicans was investigated.
(§2) Staphylococcus aureus ATCC 29213, Pseudomonas aeruginosa (SVB-B9) (type strain), and Escherichia coli ATCC 25,922 were grown in either non-cation-adjusted or cation-adjusted Mueller Hinton (MH) broth at 37 °C with shaking (200 rpm). MIC assays were performed in technical triplicate in accordance with the CLSI-recommended protocol. All assays were performed independently on three occasions, with the reported MIC defined as the lowest concentration for which agreement was observed consistently for all replicates.

In another experiment the test system is C. albicans (SC5314). The experiment in a line: microbe, parasite or virus in culture. In kind it is cell-based, Candida albicans. The conditions noted are these: read-out: Minimum Inhibitory Concentration.
Description: as §1
Antimicrobial susceptibility of Candida albicans SC5314 (type strain) was assessed by broth microdilution in RPMI 1640 media in accordance with the CLSI recommended protocols. All assays were performed independently on three occasions, with the reported MIC defined as the lowest concentration for which agreement was observed consistently for all replicates.

For the next experiment, the system named is Candida albicans. The conditions noted are these: isolation report; cited from earlier work. An excerpt:
(§3) Furthermore, these have shown promising anti-inflammatory and specific immune modulatory capabilities in immunocytes, as well as antiviral activity against human immunodeficiency virus (HIV), influenza A virus (I ...

Another experiment has as its system Escherichia coli. The conditions noted are these: isolation report, assays in Luria Broth (LB); cited from earlier work.
Description: as §3

The test system of another experiment is Pseudomonas aeruginosa. The conditions noted are these: isolation report, assays in Luria Broth (LB); cited from earlier work.
Description: as §3

The subject of another experiment is Staphylococcus aureus. The settings on record: isolation report, assays in Luria Broth (LB); cited from earlier work.
Description: as §3

The subject of the next experiment is P. aeruginosa (SVB-B9). The experiment in a line: microbe, parasite or virus in culture. Type of experiment: cell-based, Pseudomonas aeruginosa. The conditions noted are these: for MIC: P. aeruginosa SVB-B9 type strain, 37 °C, technical triplicate, three independent occasions, read-out: Minimum Inhibitory Concentration; for Minimum Inhibitory Concentration: SVB-B9.
Description: as §1, §2

The next experiment relates to E. coli (ATCC 25922). Type of experiment: cell-based, Escherichia coli. The settings on record: 37 °C, technical triplicate, three independent occasions.
Description: as §1, §2

The mark [1] stands for this setting: non-cation-adjusted Mueller-Hinton broth (MHB).

Values after ≈ are worked out from the molar mass of the structure shown. Read-outs that look alike come from different tables or passages of the source. Where a SMILES comes first, the peptide text is derived from it. Bridges are numbered along the chain shown (N, C = ends). Where no end group is shown, it is not given here. [ ]: non-standard residue; d: D form. Dab = NCC[C@H](N)C(=O)O A value given as a limit tells only on which side of the number the result lay.

With `CC[C@H](C)[C@H](NC(=O)[C@H](Cc1c[nH]cn1)NC(=O)[C@H](CO)NC(=O)[C@@H](NC(=O)[C@@H](NC(=O)[C@@H](NC(=O)[C@@H](NC(=O)[C@H](CCCNC(=N)N)NC(=O)[C@H](CC(C)C)NC(=O)[C@H](CCCCN)NC(=O)[C@H](CCC(=O)O)NC(=O)[C@H](CCCCN)NC(=O)[C@H](CC(C)C)NC(=O)[C@H](CCCCN)NC(=O)[C@@H]1CSSC[C@H](NC(=O)[C@H](CCCCN)NC(=O)[C@@H](N)CCCNC(=N)N)C(=O)N[C@@H](CC(N)=O)C(=O)N[C@@H](Cc2ccccc2)C(=O)N[C@@H](CC(C)C)C(=O)N1)[C@@H](C)O)C(C)C)[C@@H](C)CC)[C@@H](C)O)C(=O)N[C@@H](CC(=O)O)C(=O)N[C@@H](CCCCN)C(=O)N[C@H](C(=O)N[C@@H](CC(C)C)C(=O)N[C@@H](CCCNC(=N)N)C(=O)N1CCC[C@H]1C(=O)N[C@@H](CCC(N)=O)C(=O)NCC(=O)O)C(C)C` [Compound 1, Cathelicidin-PY] (H-RKCNFLCKLKEKLRTVITSHIDKVLRPQG-OH; disulfide 3-7), the MIC in the experiment on S. aureus (ATCC 29213) (ATCC 29213) is greater than 64 µM; in the experiment with C. albicans (SC5314) (SC5314) it was greater than 64 µM; in the experiment on Candida albicans, 1.37 µM (≈ 4.69 µg/mL); in the experiment on Escherichia coli it was 1.37 µM (≈ 4.69 µg/mL); with Pseudomonas aeruginosa, 5.48 µM (≈ 18.8 µg/mL); in the experiment on Staphylococcus aureus, 2.74 µM (≈ 9.38 µg/mL).

With `C[C@@H]1[C@H](O)[C@@H](C)/C=C/C=C/C=C/C=C/C=C/C=C/C=C/[C@H](O[C@@H]2O[C@H](C)[C@@H](O)[C@H](N)[C@@H]2O)C[C@@H]2O[C@](O)(C[C@@H](O)C[C@@H](O)[C@H](O)CC[C@@H](O)C[C@@H](O)CC(=O)O[C@H]1C)C[C@H](O)[C@H]2C(=O)O` [A, Amphotericin B, reference compound], the MIC is 2 µM (≈ 1.85 µg/mL) with P. aeruginosa (SVB-B9) (Pseudomonas aeruginosa, cation-adjusted Mueller-Hinton broth (CAMHB)); greater than 64 µM in the experiment with S. aureus (ATCC 29213) (S. aureus ATCC 29213, non-cation-adjusted Mueller-Hinton broth (MHB), 37 °C, technical triplicate, three independent occasions); greater than 64 µM in the experiment on S. aureus (ATCC 29213) (Staphylococcus aureus, ATCC29213, S. aureus ATCC 29213, cation-adjusted Mueller-Hinton broth (CAMHB), 37 °C, technical triplicate, three independent occasions); 1 µM (≈ 0.924 µg/mL) in the experiment with C. albicans (SC5314) (Candida albicans, C. albicans SC5314 type strain, RPMI 1640 media, three independent occasions).

For “polymyxin B sulfate [reference compound]”, the “Minimum Inhibitory Concentration” value with E. coli (ATCC 25922) (cation-adjusted Mueller-Hinton broth (CAMHB)) and in the experiment on E. coli (ATCC 25922) (setting [1]) was 1 µM throughout. Besides, the MIC with P. aeruginosa (SVB-B9) (setting [1]) was 2 µM.

On to `CC[C@H](C)[C@H](NC(=O)[C@H](Cc1c[nH]cn1)NC(=O)[C@H](CO)NC(=O)[C@@H](NC(=O)[C@@H](NC(=O)[C@@H](NC(=O)[C@@H](NC(=O)[C@H](CCCNC(=N)N)NC(=O)[C@H](CC(C)C)NC(=O)[C@H](CCCCN)NC(=O)[C@H](CCC(=O)O)NC(=O)[C@H](CCCCN)NC(=O)[C@H](CC(C)C)NC(=O)[C@H](CCCCN)NC(=O)[C@@H]1CCNC(=O)C[C@H](NC(=O)[C@H](CCCCN)NC(=O)[C@@H](N)CCCNC(=N)N)C(=O)N[C@@H](CC(N)=O)C(=O)N[C@@H](Cc2ccccc2)C(=O)N[C@@H](CC(C)C)C(=O)N1)[C@@H](C)O)C(C)C)[C@@H](C)CC)[C@@H](C)O)C(=O)N[C@@H](CC(=O)O)C(=O)N[C@@H](CCCCN)C(=O)N[C@H](C(=O)N[C@@H](CC(C)C)C(=O)N[C@@H](CCCNC(=N)N)C(=O)N1CCC[C@H]1C(=O)N[C@@H](CCC(N)=O)C(=O)NCC(=O)O)C(C)C` [Compound 8] (H-RKDNFL[Dab]KLKEKLRTVITSHIDKVLRPQG-OH; lactam 3-7), for which the “Minimum Inhibitory Concentration” value in the experiment with P. aeruginosa (SVB-B9) lay within 4 to 8 µM. Moreover, the MIC in the experiment with S. aureus (ATCC 29213) (ATCC 29213) and with C. albicans (SC5314) (SC5314) was greater than 64 µM each time.

For `CC[C@H](C)[C@@H]1NC(=O)[C@H](Cc2c[nH]cn2)NC(=O)[C@H](CO)NC(=O)[C@H]([C@@H](C)O)NC(=O)[C@H]([C@@H](C)CC)NC(=O)[C@H](C(C)C)NC(=O)[C@H]([C@@H](C)O)NC(=O)[C@H](CCCNC(=N)N)NC(=O)[C@H](CC(C)C)NC(=O)[C@H](CCCCN)NC(=O)[C@H](CCC(=O)O)NC(=O)[C@H](CCCCN)NC(=O)[C@H](CC(C)C)NC(=O)[C@H](CCCCN)NC(=O)[C@@H]2CSSC[C@H](NC(=O)[C@H](CCCCN)NC(=O)[C@H](CCCNC(=N)N)NC(=O)CNC(=O)[C@H](CCC(N)=O)NC(=O)[C@@H]3CCCN3C(=O)[C@H](CCCNC(=N)N)NC(=O)[C@H](CC(C)C)NC(=O)[C@H](C(C)C)NC(=O)[C@H](CCCCN)NC(=O)[C@H](CC(=O)O)NC1=O)C(=O)N[C@@H](CC(N)=O)C(=O)N[C@@H](Cc1ccccc1)C(=O)N[C@@H](CC(C)C)C(=O)N2` [Compound 3] (cyclo(CKLKEKLRTVITSHIDKVLRPQGRKCNFL); disulfide 1-26), the MIC with S. aureus (ATCC 29213) (ATCC 29213) and in the experiment with C. albicans (SC5314) (SC5314) was greater than 64 µM in each case.

As for `CC[C@H](C)[C@H](NC(=O)[C@H](Cc1c[nH]cn1)NC(=O)[C@H](CO)NC(=O)[C@@H](NC(=O)[C@@H](NC(=O)[C@@H](NC(=O)[C@@H](NC(=O)[C@H](CCCNC(=N)N)NC(=O)[C@H](CC(C)C)NC(=O)[C@H](CCCCN)NC(=O)[C@H](CCC(=O)O)NC(=O)[C@H](CCCCN)NC(=O)[C@H](CC(C)C)NC(=O)[C@H](CCCCN)NC(=O)[C@@H]1CCC(=O)NCCCC[C@H](NC(=O)[C@H](CCCCN)NC(=O)[C@@H](N)CCCNC(=N)N)C(=O)N[C@@H](CC(N)=O)C(=O)N[C@@H](Cc2ccccc2)C(=O)N[C@@H](CC(C)C)C(=O)N1)[C@@H](C)O)C(C)C)[C@@H](C)CC)[C@@H](C)O)C(=O)N[C@@H](CC(=O)O)C(=O)N[C@@H](CCCCN)C(=O)N[C@H](C(=O)N[C@@H](CC(C)C)C(=O)N[C@@H](CCCNC(=N)N)C(=O)N1CCC[C@H]1C(=O)N[C@@H](CCC(N)=O)C(=O)NCC(=O)O)C(C)C` [Compound 6] (H-RKKNFLEKLKEKLRTVITSHIDKVLRPQG-OH; lactam 3-7), the “Minimum Inhibitory Concentration” value with P. aeruginosa (SVB-B9) was in the range of 4 to 8 µM. Also, the MIC with S. aureus (ATCC 29213) (ATCC 29213) and in the experiment with C. albicans (SC5314) (SC5314) was greater than 64 µM in each case.

Turning to “RKANFLAKLKEKLRTVITSHIDKVLRPQG [Compound 2]”, the “Minimum Inhibitory Concentration” value in the experiment on P. aeruginosa (SVB-B9) is 4 to 8 µM. Also, the MIC in the experiment on S. aureus (ATCC 29213) (ATCC 29213) and with C. albicans (SC5314) (SC5314) was greater than 64 µM throughout.

In the case of `CC[C@H](C)[C@H](NC(=O)[C@H](Cc1c[nH]cn1)NC(=O)[C@H](CO)NC(=O)[C@@H](NC(=O)[C@@H](NC(=O)[C@@H](NC(=O)[C@@H](NC(=O)[C@H](CCCNC(=N)N)NC(=O)[C@H](CC(C)C)NC(=O)[C@H](CCCCN)NC(=O)[C@H](CCC(=O)O)NC(=O)[C@H](CCCCN)NC(=O)[C@H](CC(C)C)NC(=O)[C@H](CCCCN)NC(=O)[C@@H]1CCCCNC(=O)C[C@H](NC(=O)[C@H](CCCCN)NC(=O)[C@@H](N)CCCNC(=N)N)C(=O)N[C@@H](CC(N)=O)C(=O)N[C@@H](Cc2ccccc2)C(=O)N[C@@H](CC(C)C)C(=O)N1)[C@@H](C)O)C(C)C)[C@@H](C)CC)[C@@H](C)O)C(=O)N[C@@H](CC(=O)O)C(=O)N[C@@H](CCCCN)C(=O)N[C@H](C(=O)N[C@@H](CC(C)C)C(=O)N[C@@H](CCCNC(=N)N)C(=O)N1CCC[C@H]1C(=O)N[C@@H](CCC(N)=O)C(=O)NCC(=O)O)C(C)C` [Compound 5] (H-RKDNFLKKLKEKLRTVITSHIDKVLRPQG-OH; lactam 3-7), the MIC in the experiment with S. aureus (ATCC 29213) (ATCC 29213) and in the experiment on C. albicans (SC5314) (SC5314) was greater than 64 µM throughout.

(Values after publication PMC9959817, “Flow-Based Fmoc-SPPS Preparation and SAR Study of Cathelicidin-PY Reveals Selective Antimicrobial Activity” (Molecules, 2023).)
